Values of other authors in patent US7148007B2, “Method for evaluating immunotoxicity of test substance” (priority 2001, dated 2006).

Settings: toxicity level based on that of 2,3,7,8-TCDD being 1; WHO 1998 TEF scheme

Structure (SMILES)	WHO-TEF
Clc1cc2c(cc1Cl)Oc1c(Cl)c(Cl)c(Cl)c(Cl)c1O2 [1,2,3,4,7,8-HxCDD, 1,2,3,4,7,8-Hexachlorodibenzo-p-dioxin]	0.1
Clc1cc2c(c(Cl)c1Cl)Oc1cc(Cl)c(Cl)c(Cl)c1O2 [1,2,3,6,7,8-HxCDD]	0.1
Clc1cc2c(c(Cl)c1Cl)Oc1c(cc(Cl)c(Cl)c1Cl)O2 [1,2,3,7,8,9-HxCDD, 1,2,3,7,8,9-Hexachlorodibenzo-p-dioxin]	0.1
Clc1cc2c(cc1Cl)Oc1c(cc(Cl)c(Cl)c1Cl)O2 [1,2,3,7,8-PeCDD, 1,2,3,7,8-Pentachlorodibnzo-p-dioxin]	1
Clc1cc2c(cc1Cl)Oc1cc(Cl)c(Cl)cc1O2 [2,3,7,8-TCDD, 2,3,7,8-Tetraorodibenzo-p-dioxin]	1
Clc1c(Cl)c(Cl)c2c(c1Cl)Oc1c(Cl)c(Cl)c(Cl)c(Cl)c1O2 [OCDD, 1,2,3,4,5,6,7,8,9-Octachlorodibenzo-p-dioxin]	0.0001
